# Data from patent US8574563B2 (Bristol-Myers Squibb Company, priority 2006, dated 2013).
# Test system: HCV 1b-377-neo replicon cells
# Experiment: HCV replicon assay, HCV 1b-377-neo replicon cells (1b FRET)
# Format: cell-based, Hepatitis C virus genotype 1b
# Details: HCV 1b-377-neo replicon cells; HCV 1b genotype
# How it was run: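 Compounds were tested in genotype 1b subgenomic replicon cells carrying a neomycin marker, alongside a matched replicon line with an NS5A Y2065H substitution that confers resistance to a reference NS5A inhibitor.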
row,Compound,"EC50 range against HCV 1b (Table 2, Range)"
1,"COC(=O)N[C@@H](C(=O)N1CCC[C@H]1c1ncc(-c2ccc(-c3ccc(-c4cnc([C@@H]5CCCN5C(=O)[C@H](NC(=O)OC)c5ccccc5)[nH]4)cc3C(=O)O)cc2)[nH]1)c1ccccc1 [Example M117, 4,4′-bis(2-((2S)-1-((2R)-2-((methoxycarbonyl)amino)-2-phenylacetyl)-2-pyrrolidinyl)-1H-imidazol-5-yl)-2-biphenylcarboxylic acid]",>A

# Same assay, conditions: HCV 1b-377-neo replicon cells; HCV 1b genotype; read-out: EC50 range against HCV 1b (Table 2, Range)
row,Compound,EC50 [nM]
1,"COC(=O)N[C@@H](C(=O)N1CCC[C@H]1c1ncc(-c2ccc(-c3ccc(-c4cnc([C@@H]5CCCN5C(=O)Cc5ccccc5CN5CCCC5)[nH]4)cc3)cc2)[nH]1)c1ccccc1 [Example 84-86, methyl ((1R)-2-oxo-1-phenyl-2-((2S)-2-(5-(4′-(2-((2S)-1-((2-(1-pyrrolidinylmethyl)phenyl)acetyl)-2-pyrrolidinyl)-1H-imidazol-5-yl)-4-biphenylyl)-1H-imidazol-2-yl)-1-pyrrolidinyl)ethyl)carbamate]",0.001 to 0.999

# Same assay, conditions: Hepatitis C virus, HCV 1b-377-neo replicon cells; HCV 1b genotype; read-out: EC50 range against HCV 1b (Table 2, Range)
row,Compound,EC50 [nM]
1,"CN1CCC[C@H]1C(=O)N[C@@H](C(=O)N1CCC[C@H]1c1ncc(-c2ccc(-c3ccc(-c4cnc([C@@H]5CCCN5C(=O)[C@H](NC(=O)[C@@H]5CCCN5C)c5ccccc5)[nH]4)cc3)cc2)[nH]1)c1ccccc1 [Example 25-3, (2S,2′S)-N,N′-(4,4′-biphenyldiylbis(1H-imidazole-5,2-diyl(2S)-2,1-pyrrolidinediyl((1R)-2-oxo-1-phenyl-2,1-ethanediyl)))bis(1-methyl-2-pyrrolidinecarboxamide)]",0.001 to 0.999
2,"C[C@@H](c1ncc(-c2ccc(-c3ccc(-c4cnc([C@@H]5CCCN5C(=O)[C@@H](c5ccccc5)N5CCCCC5)[nH]4)cc3)cc2)[nH]1)N(C)C(=O)[C@@H](c1ccccc1)N1CCCCC1 [Example 24-18-6, (2R)-N-methyl-2-phenyl-N-((1S)-1-(5-(4′-(2-((2S)-1-((2R)-2-phenyl-2-(1-piperidinyl)acetyl)-2-pyrrolidinyl)-1H-imidazol-5-yl)-4-biphenylyl)-1H-imidazol-2-yl)ethyl)-2-(1-piperidinyl)acetamide]",0.001 to 0.999
3,"COC(=O)N[C@@H]1CCCC[C@@H]1C(=O)N1CCC[C@H]1c1ncc(-c2ccc(-c3ccc(-c4cnc([C@@H]5CCCN5C(=O)[C@H]5CCCC[C@H]5NC(=O)OC)[nH]4)cc3)cc2)[nH]1 [cj-141, dimethyl (4,4′-biphenyldiylbis(1H-imidazole-5,2-diyl(2S)-2,1-pyrrolidinediylcarbonyl(1R,2S)-2,1-cyclohexanediyl))biscarbamate]",1000 to 10000
4,"CN[C@H](C(=O)N1CCC[C@H]1c1nc(-c2ccc(-c3ccc(-c4cnc([C@@H]5CCCN5C(=O)[C@@H](NC)C(C)C)[nH]4)cc3)cc2)c[nH]1)C(C)C [Example F34, (2S)-N,3-dimethyl-1-((2S)-2-(4-(4′-(2-((2S)-1-((2S)-3-methyl-2-(methylamino)butanoyl)-2-pyrrolidinyl)-1H-imidazol-5-yl)-4-biphenylyl)-1H-imidazol-2-yl)-1-pyrrolidinyl)-1-oxo-2-butanamine]",1 to 99
5,"O=C([C@@H](O)C1CCCCC1)N1CCC[C@H]1c1ncc(-c2ccc(-c3ccc(-c4cnc([C@@H]5CCCN5C(=O)[C@@H](O)C5CCCCC5)[nH]4)cc3)cc2)[nH]1 [LS2, (1S,1′S)-2,2′-(4,4′-biphenyldiylbis(1H-imidazole-5,2-diyl(2S)-2,1-pyrrolidinediyl))bis(1-cyclohexyl-2-oxoethanol)]",1 to 99
6,"CCN(CC)[C@@H](C(=O)N1CCC[C@H]1c1ncc(-c2ccc(-c3ccc(-c4cnc([C@@H]5CCCN5C(=O)[C@H](Cc5ccc(O)cc5)NC(=O)OC)[nH]4)cc3)cc2)[nH]1)c1ccccc1 [cj-112, methyl ((1S)-2-((2S)-2-(5-(4′-(2-((2S)-1-((2R)-2-(diethylamino)-2-phenylacetyl)-2-pyrrolidinyl)-1H-imidazol-5-yl)-4-biphenylyl)-1H-imidazol-2-yl)-1-pyrrolidinyl)-1-(4-hydroxybenzyl)-2-oxoethyl)carbamate]",0.001 to 0.999
7,"COC(=O)N[C@@H](C(=O)N[C@@H](C)c1ncc(-c2ccc(-c3ccc(-c4cnc([C@@H]5CCCN5C(=O)[C@H](NC(=O)OC)c5ccccc5)[nH]4)nn3)cc2)[nH]1)c1ccccc1 [Example 152j-14, methyl ((1R)-2-((2S)-2-(5-(6-(4-(2-((1S)-1-(((2R)-2-((methoxycarbonyl)amino)-2-phenylacetyl)amino)ethyl)-1H-imidazol-5-yl)phenyl)-3-pyridazinyl)-1H-imidazol-2-yl)-1-pyrrolidinyl)-2-oxo-1-phenylethyl)carbamate]",1 to 99
8,"COC(=O)N[C@H](C(=O)N1CC[C@H](O)[C@H]1c1nc(-c2ccc(-c3ccc(-c4c[nH]c([C@@H]5CCCN5C(=O)[C@@H](NC(=O)OC)C(C)C)n4)cc3)cc2)c[nH]1)C(C)C [OL-19, methyl ((1S)-1-(((2R,3S)-3-hydroxy-2-(4-(4′-(2-((2S)-1-((2S)-2-((methoxycarbonyl)amino)-3-methylbutanoyl)-2-pyrrolidinyl)-1H-imidazol-4-yl)-4-biphenylyl)-1H-imidazol-2-yl)-1-pyrrolidinyl)carbonyl)-2-methylpropyl)carbamate]",0.001 to 0.999
9,"CCN(CC)[C@H](C)C(=O)N1CCC[C@H]1c1ncc(-c2ccc(-c3ccc(-c4cnc([C@@H]5CCCN5C(=O)[C@H](NC(=O)OC)c5ccccc5)[nH]4)c(F)c3)cc2F)[nH]1 [Example D63, methyl ((1R)-2-((2S)-2-(5-(4′-(2-((2S)-1-(N,N-diethyl-D-alanyl)-2-pyrrolidinyl)-1H-imidazol-5-yl)-3,3′-difluoro-4-biphenylyl)-1H-imidazol-2-yl)-1-pyrrolidinyl)-2-oxo-1-phenylethyl)carbamate]",0.001 to 0.999
10,"CCN(CC)[C@@H](C(=O)N1CCC[C@H]1c1ncc(-c2ccc(-c3ccc(-c4cnc([C@@H]5CCCN5C(=O)[C@H](Cc5ccccn5)NC(=O)OC)[nH]4)cc3)cc2)[nH]1)c1ccccc1 [cj-68, methyl ((1S)-2-((2S)-2-(5-(4′-(2-((2S)-1-((2R)-2-(diethylamino)-2-phenylacetyl)-2-pyrrolidinyl)-1H-imidazol-5-yl)-4-biphenylyl)-1H-imidazol-2-yl)-1-pyrrolidinyl)-2-oxo-1-(2-pyridinylmethyl)ethyl)carbamate]",0.001 to 0.999
11,"CCN(CC)[C@@H](C(=O)N1CCC[C@H]1c1ncc(-c2ccc(-c3ncc(-c4c[nH]c([C@@H]5CCCN5C(=O)[C@H](C)NC(=O)OC)n4)cn3)cc2)[nH]1)c1ccccc1 [Example D77, methyl ((1S)-2-((2S)-2-(5-(2-(4-(2-((2S)-1-((2R)-2-(diethylamino)-2-phenylacetyl)-2-pyrrolidinyl)-1H-imidazol-5-yl)phenyl)-5-pyrimidinyl)-1H-imidazol-2-yl)-1-pyrrolidinyl)-1-methyl-2-oxoethyl)carbamate]",0.001 to 0.999
12,"Cc1[nH]c([C@@H]2CCCN2C(=O)[C@@H](c2ccccc2)N2CCCCC2)nc1-c1ccc(-c2ccc(-c3cnc([C@@H]4CCCN4C(=O)[C@@H](c4ccccc4)N4CCCCC4)[nH]3)cc2)cc1 [Example E5b, 1-((1R)-2-((2S)-2-(4-(4′-(4-methyl-2-((2S)-1-((2R)-2-phenyl-2-(1-piperidinyl)acetyl)-2-pyrrolidinyl)-1H-imidazol-5-yl)-4-biphenylyl)-1H-imidazol-2-yl)-1-pyrrolidinyl)-2-oxo-1-phenylethyl)piperidine]",0.001 to 0.999
